Source: US11339161B2, “Triazolo pyridines as modulators of gamma-secretase” (Boehringer Ingelheim International GmbH, priority 2017, dated 2022)
Like-named read-outs stand apart in the source and are kept apart here.

Tests used:
[1] = target: FGFR2 (Homo sapiens, UniProt P21802); assay: Z'-LYTE SelectScreen biochemical kinase assay FGFR2
From the text: (§1) Thermo Fisher Scientific SelectScreen™ Biochemical Kinase Profiling Service Z′-LYTE™ Screening Protocol and Assay Conditions Assay Theory
(§2) The […] biochemical assay employs a fluorescence-based, coupled-enzyme format and is based on the differential sensitivity of phosphorylated and non-phosphorylated peptides to proteolytic cleavage. The peptide substrate is labeled with two fluorophores—one at each end—that make up a FRET pair. In the primary reaction, the kinase transfers the gamma-phosphate of ATP to a single tyrosine, serine or threonine residue in a synthetic FRET-peptide. In the secondary reaction, a site-specific protease recognizes and cleaves non-phosphorylated FRET-peptides. Phosphorylation of FRET-peptides suppresses cleavage by the Development Reagent. Cleavage disrupts FRET between the donor (i.e., coumarin) and acceptor (i.e., fluorescein) fluorophores on the FRET-peptide, whereas uncleaved, phosphorylated FRET-peptides maintain FRET. A ratiometric method, which calculates the ratio (Emission Ratio=Coumarin emission (445 nm)/Fluorescein emission (520 nm)) of donor emission to acceptor emission after excitation of the donor fluorophore at 400 nm, is used to quantitate reaction progress, as shown in the equation below. A significant benefit of this ratiometric method for quantitating reaction progress is the elimination of well-to-well variations in FRET-peptide concentration and signal intensities. As a result, the assay yields very high Z′-factor values (>0.7) at a low percent phosphorylation. Both cleaved and uncleaved FRET-peptides contribute to the fluorescence signals and therefore to the Emission Ratio. The extent of phosphorylation of the FRET-peptide can be calculated from the Emission Ratio. The Emission Ratio will remain low if the FRET-peptide is phosphorylated (i.e., no kinase inhibition) and will be high if the FRET-peptide is non-phosphorylated (i.e., kinase inhibition).
(§3) The Test Compounds are screened in 1% DMSO (final) in the well. For 10 point titrations, 3-fold serial dilutions are conducted from the starting concentration of the customer's choosing.
(§4) All Peptide/Kinase Mixtures are diluted to a 2× working concentration in the appropriate Kinase Buffer (see section Kinase Specific Assay Conditions for a complete description).
(§5) All ATP Solutions are diluted to a 4× working concentration in Kinase Buffer (50 mM HEPES pH 7.5, 0.01% BRIJ-35, 10 mM MgCl2, 1 mM EGTA). ATP Km apparent is previously determined using a Z″-LYTE assay.
(§6) The Development Reagent is diluted in Development Buffer (see section Kinase-Specific Assay Conditions—Direct and Cascade for a complete description).
(§7) Bar-coded Corning, low volume NBS, black 384-well plate (Corning Cat. #4514) • 1. 100 nL—100× Test Compound in 100% DMSO • 2. 2.4 μL—Kinase buffer • 3. 5 μL—2× Peptide/Kinase Mixture • 4. 2.5 μL—4×ATP Solution • 5. 30—second plate shake • 6. 60—minute Kinase Reaction incubation at room temperature • 7. 5 μL—Development Reagent Solution • 8. 30—second plate shake • 9. 60—minute Development Reaction incubation at room temperature • 10. Read on fluorescence plate reader and analyze the data Z′-LYTE Assay Controls
(§8) SelectScreen Kinase Profiling Service uses XLfit from IDBS. The dose response curve is curve fit to model number 205 (sigmoidal dose-response model).
The 2×FGFR2/Tyr 04 mixture is prepared in 50 mM HEPES pH 7.5, 0.01% BRIJ-35, 10 mM MgCl2, 4 mM MnCl2, 1 mM EGTA, 2 mM DTT. The final 10 μL Kinase Reaction consists of 0.19-1.99 ng FGFR2 and 2 μM Tyr 04 in 50 mM HEPES pH 7.5, 0.01% BRIJ-35, 10 mM MgCl2, 2 mM MnCl2, 1 mM EGTA, 1 mM DTT. After the 1 hour Kinase Reaction incubation, 5 μL of a 1:64 dilution of Development Reagent B is added.

[2] = target: RET (Homo sapiens, UniProt P07949); assay: Z'-LYTE SelectScreen biochemical kinase assay RET
Sequence of RET (P07949 29-1114): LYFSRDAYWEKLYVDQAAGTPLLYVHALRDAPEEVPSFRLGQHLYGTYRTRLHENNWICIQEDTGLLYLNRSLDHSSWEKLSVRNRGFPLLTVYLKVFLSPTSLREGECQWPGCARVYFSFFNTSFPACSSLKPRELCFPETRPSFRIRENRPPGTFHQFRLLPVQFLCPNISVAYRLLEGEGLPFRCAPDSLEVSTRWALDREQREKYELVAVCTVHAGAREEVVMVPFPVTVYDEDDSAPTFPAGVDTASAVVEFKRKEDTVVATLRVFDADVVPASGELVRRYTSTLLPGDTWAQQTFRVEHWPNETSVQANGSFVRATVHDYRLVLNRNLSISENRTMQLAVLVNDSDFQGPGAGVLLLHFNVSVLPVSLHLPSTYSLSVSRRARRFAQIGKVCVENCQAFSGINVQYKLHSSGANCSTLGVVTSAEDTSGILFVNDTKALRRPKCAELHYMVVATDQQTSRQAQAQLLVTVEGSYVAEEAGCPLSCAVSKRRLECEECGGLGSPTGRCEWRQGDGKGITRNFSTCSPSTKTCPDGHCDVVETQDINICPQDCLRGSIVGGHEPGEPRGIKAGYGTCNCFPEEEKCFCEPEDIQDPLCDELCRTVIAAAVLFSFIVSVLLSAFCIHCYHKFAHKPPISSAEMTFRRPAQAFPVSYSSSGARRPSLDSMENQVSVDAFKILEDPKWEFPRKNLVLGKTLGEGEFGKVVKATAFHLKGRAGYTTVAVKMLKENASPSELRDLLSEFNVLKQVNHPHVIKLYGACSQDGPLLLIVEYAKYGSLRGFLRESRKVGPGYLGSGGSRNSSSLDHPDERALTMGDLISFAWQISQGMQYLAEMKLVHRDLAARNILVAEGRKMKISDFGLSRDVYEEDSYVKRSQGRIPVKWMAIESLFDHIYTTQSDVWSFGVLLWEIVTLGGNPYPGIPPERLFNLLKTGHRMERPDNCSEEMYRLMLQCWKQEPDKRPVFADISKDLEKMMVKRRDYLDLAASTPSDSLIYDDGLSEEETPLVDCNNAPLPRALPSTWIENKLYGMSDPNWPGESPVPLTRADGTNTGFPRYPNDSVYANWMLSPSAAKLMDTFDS
From the text: as §1, §2, §3, §4, §5, §6, §7, §8
(§9) The 2×RET/Tyr 02 mixture is prepared in 50 mM HEPES pH 7.5, 0.01% BRIJ-35, 10 mM MgCl2, 1 mM EGTA. The final 10 μL Kinase Reaction consists of 0.49-3.64 ng RET and 2 μM Tyr 02 in 50 mM HEPES pH 7.5, 0.01% BRIJ-35, 10 mM MgCl2, 1 mM EGTA. After the 1 hour Kinase Reaction incubation, 5 μL of a 1:128 dilution of Development Reagent A is added.

[3] = target: ABL1 (Homo sapiens, UniProt P00519); assay: Z'-LYTE SelectScreen biochemical kinase assay ABL1
Sequence of ABL1 (P00519 whole entry): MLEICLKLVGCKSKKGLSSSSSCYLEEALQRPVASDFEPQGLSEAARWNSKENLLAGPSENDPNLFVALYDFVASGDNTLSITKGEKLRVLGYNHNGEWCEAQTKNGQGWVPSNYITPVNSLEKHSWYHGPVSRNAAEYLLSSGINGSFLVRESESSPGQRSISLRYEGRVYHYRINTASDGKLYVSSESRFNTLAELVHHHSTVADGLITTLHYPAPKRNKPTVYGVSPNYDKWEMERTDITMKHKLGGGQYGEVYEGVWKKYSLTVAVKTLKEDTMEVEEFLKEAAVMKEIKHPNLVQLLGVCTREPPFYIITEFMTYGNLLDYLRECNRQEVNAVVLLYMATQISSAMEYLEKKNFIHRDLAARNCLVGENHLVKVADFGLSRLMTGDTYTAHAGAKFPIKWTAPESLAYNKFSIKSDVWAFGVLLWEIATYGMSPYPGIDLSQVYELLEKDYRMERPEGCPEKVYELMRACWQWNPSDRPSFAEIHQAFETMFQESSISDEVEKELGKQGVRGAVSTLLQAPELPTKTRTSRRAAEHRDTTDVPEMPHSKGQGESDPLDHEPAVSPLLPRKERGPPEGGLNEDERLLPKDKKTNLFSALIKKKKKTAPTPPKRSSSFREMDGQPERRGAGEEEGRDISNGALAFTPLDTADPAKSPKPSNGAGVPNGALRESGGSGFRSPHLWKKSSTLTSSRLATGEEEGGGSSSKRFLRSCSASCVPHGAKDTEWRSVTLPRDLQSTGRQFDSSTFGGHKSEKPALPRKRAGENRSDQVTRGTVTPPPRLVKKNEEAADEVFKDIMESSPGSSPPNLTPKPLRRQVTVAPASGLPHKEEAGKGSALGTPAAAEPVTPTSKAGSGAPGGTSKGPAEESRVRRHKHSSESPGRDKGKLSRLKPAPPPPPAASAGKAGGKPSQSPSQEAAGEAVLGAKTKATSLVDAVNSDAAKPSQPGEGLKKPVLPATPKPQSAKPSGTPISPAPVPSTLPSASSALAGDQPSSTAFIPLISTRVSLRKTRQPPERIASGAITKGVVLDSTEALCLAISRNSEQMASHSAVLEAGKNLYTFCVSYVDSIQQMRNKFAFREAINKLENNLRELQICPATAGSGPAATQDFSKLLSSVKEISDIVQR
From the text: as §1, §2, §3, §4, §5, §6, §7, §8
as §9, with “2×ABL1/Tyr” for “2×RET/Tyr”, “0.29-1.26” for “0.49-3.64”, “ABL1” for “RET”

[4] = test system: Aβ42 production; assay: Inhibition of Aβ42 production in H4 neuroglioma cells stably expressing human APP695 (MSD electrochemiluminescence); format: cell-based
Experimental: Cells were plated out to near confluency. The compounds to be tested were received as 10 mM stocks in 100% DMSO. A dilution series was initially generated in 100% DMSO and then diluted 200-fold in cell culture media such that the tested concentration range was 30 μM to 0.1 nM and the final DMSO concentration was 0.5%. The diluted compounds were incubated with the cells for 22 hours in an incubator at 37° C. and 5% CO2. Aβ42 levels were measured post-incubation from the supernatant of the cells using an Aβ42 specific electrochemiluminescence assay provided by Meso Scale Discovery (Catalog #L21CA-1). The measurement of Aβ42 levels were performed according to the manufacturer's protocol.

[5] = 10 μmolar compound concentration, ATP at Km app, read-out: FGFR2 inhibition
[6] = read-out: % Inhibition mean FGFR2
[7] = 10 μmolar compound concentration, ATP at Km app, read-out: RET inhibition
[8] = read-out: % Inhibition mean RET
[9] = 10 μmolar compound concentration, ATP at Km app, read-out: ABL1 inhibition
[10] = read-out: % Inhibition mean ABL1
[11] = H4 neuroglioma cells expressing human APP695, 22 hours incubation, Table 4a

Sequence of FGFR2 (P21802 22-821): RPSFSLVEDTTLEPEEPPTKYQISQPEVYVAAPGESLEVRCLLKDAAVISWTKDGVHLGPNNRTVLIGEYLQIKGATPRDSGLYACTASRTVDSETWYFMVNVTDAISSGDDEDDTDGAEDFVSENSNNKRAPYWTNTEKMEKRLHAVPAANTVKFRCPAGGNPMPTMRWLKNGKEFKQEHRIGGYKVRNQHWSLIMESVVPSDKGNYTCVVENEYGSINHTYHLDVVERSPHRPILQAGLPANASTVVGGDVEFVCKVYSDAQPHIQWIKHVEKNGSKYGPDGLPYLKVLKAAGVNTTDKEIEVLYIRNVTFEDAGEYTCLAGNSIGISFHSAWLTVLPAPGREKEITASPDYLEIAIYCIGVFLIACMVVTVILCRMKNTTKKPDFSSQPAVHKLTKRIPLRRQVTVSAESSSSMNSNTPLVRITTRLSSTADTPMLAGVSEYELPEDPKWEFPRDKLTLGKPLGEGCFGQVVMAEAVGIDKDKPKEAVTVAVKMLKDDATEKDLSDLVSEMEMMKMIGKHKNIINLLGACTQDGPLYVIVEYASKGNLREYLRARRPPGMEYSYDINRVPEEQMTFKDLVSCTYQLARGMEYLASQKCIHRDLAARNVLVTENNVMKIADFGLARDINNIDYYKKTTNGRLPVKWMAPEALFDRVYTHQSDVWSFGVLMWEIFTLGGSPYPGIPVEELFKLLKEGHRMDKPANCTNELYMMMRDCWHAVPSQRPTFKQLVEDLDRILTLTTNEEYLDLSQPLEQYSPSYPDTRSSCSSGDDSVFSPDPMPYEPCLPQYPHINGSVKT

SMILES | inhibition at 10 µM [1, 5] | inhibition at 10 µM [1, 6] | inhibition at 10 µM [2, 7] | inhibition at 10 µM [2, 8] | inhibition at 10 µM [3, 9] | inhibition at 10 µM [3, 10] | IC50 [4, 11] | inhibition at 10 µM ([1]; read-out: % Inhibition mean) | inhibition at 10 µM ([2]; read-out: % Inhibition mean) | inhibition at 10 µM ([3]; read-out: % Inhibition mean) | IC50 ([4]; Homo sapiens, H4 neuroglioma cells, same assay as table 4a, prior art compounds, Table 4b) | modulation of γ-secretase (in words) ([4]; tables 4a/4b)
Cc1cc(F)ccc1-c1cccn2nc(Nc3ccc4c(cnn4C)c3)nc12 [Example 9, [8-(4-fluoro-2-methyl-phenyl)-[1,2,4]triazolo[1,5-a]pyridine-2-yl]-(1-methyl-1H-indazol-5-yl)-amine] | 40 to 80% | 46% | < 40% | 39% | 40 to 80% | 63% | 1260 nM | – | – | – | – | –
CCn1nc(Cl)c2c1CCC(Nc1nc3c(-c4ccc(F)cc4C)cccn3n1)C2 (stereo not drawn) [Example 48, (3-Chloro-1-ethyl-4,5,6,7-tetrahydro-1H-indazol-5-yl)-[8-(4-fluoro-2-methyl-phenyl)-[1,2,4]triazolo[1,5-a]pyridine-2-yl]-amine] | < 40% | 22% | < 40% | 18% | < 40% | 13% | 750 nM | – | – | – | – | –
CCn1ncc2c1CCC(Nc1nc3c(-c4ccc(OC)nc4)cccn3n1)C2 (stereo not drawn) [Example 71, (1-Ethyl-4,5,6,7-tetrahydro-1H-indazol-5-yl)-[8-(6-methoxy-pyridin-3-yl)-[1,2,4]triazolo[1,5-a]pyridine-2-yl]-amine] | < 40% | 27% | < 40% | 30% | < 40% | 24% | 90 nM | – | – | – | – | –
CCn1ncc2c1CCC(Nc1nc3c(-c4cccnc4)cccn3n1)C2 (stereo not drawn) [Example 63, (1-Ethyl-4,5,6,7-tetrahydro-1H-indazol-5-yl)-(8-pyridin-3-yl-[1,2,4]triazolo[1,5-a]pyridine-2-yl)-amine] | < 40% | 16% | < 40% | 20% | < 40% | 15% | 350 nM | – | – | – | – | –
CCCCn1ncc2c1CCC(Nc1nc3c(-c4ccc(F)cc4C)cccn3n1)C2 (stereo not drawn) [Example 46, [8-(4-fluoro-2-methyl-phenyl)-[1,2,4]triazolo[1,5-a]pyridine-2-yl]-(1-butyl-4,5,6,7-tetrahydro-1H-indazol-5-yl)-amine] | < 40% | 26% | < 40% | 26% | < 40% | 10% | 2770 nM | – | – | – | – | –
CC1(C)NC(=O)c2ccc(Nc3nc4c(-c5cccc(F)c5)cccn4n3)cc21 [Cpd. 302 in WO09155551, reference compound] | > 80% | – | > 80% | – | > 80% | – | – | 98% | 98% | 104% | > 10000 nM | do not show any modulation
CCCCCn1ncc2c1CCC(Nc1nc3c(-c4ccc(F)cc4C)cccn3n1)C2 (stereo not drawn) [Example 47, [8-(4-fluoro-2-methyl-phenyl)-[1,2,4]triazolo[1,5-a]pyridine-2-yl]-(1-pentyl-4,5,6,7-tetrahydro-1H-indazol-5-yl)-amine] | < 40% | 21% | < 40% | 23% | < 40% | 3% | > 30000 nM | – | – | – | – | –

More lines, main results first:

inhibition at 10 µM [1, 5] | inhibition at 10 µM [1, 6] | inhibition at 10 µM [2, 7] | inhibition at 10 µM [2, 8] | inhibition at 10 µM [3, 9] | inhibition at 10 µM [3, 10] | IC50 [4, 11] | inhibition at 10 µM ([1]; read-out: % Inhibition mean) | inhibition at 10 µM ([2]; read-out: % Inhibition mean) | inhibition at 10 µM ([3]; read-out: % Inhibition mean) | IC50 ([4]; Homo sapiens, H4 neuroglioma cells, same assay as table 4a, prior art compounds, Table 4b) | SMILES | modulation of γ-secretase (in words) ([4]; tables 4a/4b)
< 40% | 22% | < 40% | – | < 40% | 11% | 70 nM | – | – | – | – | CCn1ncc2c1CCC(Nc1nc3c(-c4ccccc4)cccn3n1)C2 (stereo not drawn) [Example 57, (1-Ethyl-4,5,6,7-tetrahydro-1H-indazol-5-yl)-(8-phenyl-[1,2,4]triazolo[1,5-a]pyridine-2-yl)-amine] | –
< 40% | 13% | < 40% | 21% | < 40% | 21% | 180 nM | – | – | – | – | CCn1ncc2c1CCC(Nc1nc3c(-c4ccc(F)cc4)cccn3n1)C2 (stereo not drawn) [Example 55, (1-Ethyl-4,5,6,7-tetrahydro-1H-indazol-5-yl)-[8-(4-fluoro-phenyl)-[1,2,4]triazolo[1,5-a]pyridine-2-yl]-amine] | –
< 40% | 30% | < 40% | 23% | < 40% | 14% | 40 nM | – | – | – | – | CCn1ncc2c1CC[C@@H](Nc1nc3c(-c4ccc(F)cc4C)cccn3n1)C2 [Example R-42, (R)-(1-Ethyl-4,5,6,7-tetrahydro-1H-indazol-5-yl)-[8-(4-fluoro-2-methyl-phenyl)-[1,2,4]triazolo[1,5-a]pyridine-2-yl]-amine] | –
< 40% | 19% | < 40% | 27% | < 40% | 20% | 160 nM | – | – | – | – | CCn1ncc2c1CCC(Nc1nc3c(-c4ccccc4C)cccn3n1)C2 (stereo not drawn) [Example 56, (1-Ethyl-4,5,6,7-tetrahydro-1H-indazol-5-yl)-[8-(2-methyl-phenyl)-[1,2,4]triazolo[1,5-a]pyridine-2-yl]-amine] | –
< 40% | 1% | < 40% | 16% | < 40% | 13% | 500 nM | – | – | – | – | CCn1ncc2c1CCC(Nc1nc3c(-c4cccnc4OC)cccn3n1)C2 (stereo not drawn) [Example 69, (1-Ethyl-4,5,6,7-tetrahydro-1H-indazol-5-yl)-[8-(2-methoxy-pyridin-3-yl)-[1,2,4]triazolo[1,5-a]pyridine-2-yl]-amine] | –
